ChEMBL document CHEMBL1146565, “Intercedensides A-C, three new cytotoxic triterpene glycosides from the sea cucumber Mensamaria intercedens Lampert” (2003)

Test system: Pyricularia oryzae
Assay: Antimicrobial activity against Pyricularia oryzae P-2b assessed as drug concentration causing minimum morphological deformation
Format: functional

`O=c1[nH]cc(F)c(=O)[nH]1` [FLUOROURACIL] was tested, and the Activity was “<=5 ug ml-1”.
